Values of other authors, collected in patent publication US20110110858A1, “Gold nanoparticle imaging agents and uses thereof” (priority 2009, published 2011).

Conditions: 25° C.

pKa of the central CO2H: 2.5
pKa of the lysyl amino group: 10.1
pKa of the prolyl CO2H: 4.0
pKa of the secondary amine group: 6.7
Structure (SMILES): NCCCC[C@H](N[C@@H](CCc1ccccc1)C(=O)O)C(=O)N1CCC[C@H]1C(=O)O [lisinopril]
